Assay results as given in ChEMBL document CHEMBL1125544, “Novel thiosemicarbazones derived from formyl- and acyldiazines: synthesis, effects on cell proliferation, and synergism with antiviral agents” (1992).
Converted amounts (≈) assume the structure as drawn.

Experiments:
Details in all cases: Homo sapiens
MT4 [1] = assay: Inhibition of proliferation of MT-4 cells.
HuT78 [2] = assay: Inhibition of proliferation of HUT78 cells.
MT4 [3] = assay: Compound was evaluated for inhibition of proliferation of MT-4 cells (in vitro)
HuT78 [4] = assay: Compound was evaluated for inhibition of proliferation of HUT78 cells (in vitro)
MT4 [5] = assay: Compound was evaluated for inhibition of proliferation of MT-4 cells(in vitro)

SMILES	IC50 (MT4 [1])	IC50 (HuT78 [2])	IC50 (MT4 [3])	IC50 (HuT78 [4])	IC50 (MT4 [5])
C/C(=N\N=C(\N)S)c1cnccn1	0.95 µg/mL (≈ 4.87 µM)	1.39 µg/mL (≈ 7.12 µM)	–	–	–
CC/C(=N\N=C(/S)N1CCCCCC1)c1cccnn1	0.039 µg/mL (≈ 0.134 µM)	0.073 µg/mL (≈ 0.25 µM)	–	–	–
CC/C(=N\N=C(/S)N1CCCC1)c1cccnn1	0.016 µg/mL (≈ 0.0608 µM)	0.052 µg/mL (≈ 0.197 µM)	–	–	–
C/C(=N\N=C(/S)N(C)C)c1ccc(C)nn1	0.12 µg/mL (≈ 0.506 µM)	0.088 µg/mL (≈ 0.371 µM)	–	–	–
C/N=C(\S)N/N=C(\C)c1ccncn1	0.02 µg/mL (≈ 0.0956 µM)	0.022 µg/mL (≈ 0.105 µM)	–	–	–
C=CCN/C(S)=N/N=C(\C)c1cccnn1	1.28 µg/mL (≈ 5.44 µM)	2.65 µg/mL (≈ 11.3 µM)	–	–	–
C/C(=N\N=C(\N)S)c1ccncn1	0.14 µg/mL (≈ 0.717 µM)	0.82 µg/mL (≈ 4.2 µM)	–	–	–
C/N=C(\S)N/N=C(\C)c1ccc(C)nn1	1.52 µg/mL (≈ 6.81 µM)	2.15 µg/mL (≈ 9.63 µM)	–	–	–
C/C(=N\N=C(\N)S)c1ccc(C)nn1	1.49 µg/mL (≈ 7.12 µM)	1.58 µg/mL (≈ 7.55 µM)	–	–	–
N/C(S)=N/N=C/c1cccnn1	2.18 µg/mL (≈ 12 µM)	4.21 µg/mL (≈ 23.2 µM)	–	–	–
C/C(=N\N=C(/S)N1CCCC1)c1ccncn1	0.00026 µg/mL (≈ 0.00104 µM)	0.00031 µg/mL (≈ 0.00124 µM)	–	–	–
C/C(=N\N=C(/S)N1CCCCCC1)c1ccncn1	0.016 µg/mL (≈ 0.0577 µM)	0.0022 µg/mL (≈ 0.00793 µM)	–	–	–
CN(C)/C(S)=N/N=C/c1cccnn1	0.11 µg/mL (≈ 0.526 µM)	0.11 µg/mL (≈ 0.526 µM)	–	–	–
C/N=C(\S)N/N=C/c1cccnn1	2.42 µg/mL (≈ 12.4 µM)	4.52 µg/mL (≈ 23.1 µM)	–	–	–
C/N=C(\S)N/N=C(\C)c1cccnn1	1.62 µg/mL (≈ 7.74 µM)	1.86 µg/mL (≈ 8.89 µM)	–	–	–
C/N=C(\S)N/N=C(\C)c1cnccn1	0.46 µg/mL (≈ 2.2 µM)	0.88 µg/mL (≈ 4.2 µM)	–	–	–
C/C(=N\N=C(/S)N(C)C)c1ccncn1	0.00049 µg/mL (≈ 0.00219 µM)	0.00065 µg/mL (≈ 0.00291 µM)	–	–	–
C/C(=N\N=C(/S)NCc1ccccn1)c1cccnn1	0.87 µg/mL (≈ 3.04 µM)	2.01 µg/mL (≈ 7.02 µM)	–	–	–
C=CCNC(=S)N/N=C/c1cccnn1	3.1 µg/mL (≈ 14 µM)	6.22 µg/mL (≈ 28.1 µM)	–	–	–
CC(N/N=C(\S)N1CCCC1)c1cccnn1 (stereo not drawn)	0.016 µg/mL (≈ 0.0637 µM)	0.068 µg/mL (≈ 0.271 µM)	–	–	–
C/C(=N\N=C(/S)NCc1ccccn1)c1ccc(C)nn1	1.64 µg/mL (≈ 5.46 µM)	2.82 µg/mL (≈ 9.39 µM)	–	–	–
C/C(=N\NC(=S)N(C)C)c1cnccn1	0.00045 µg/mL (≈ 0.00202 µM)	0.00062 µg/mL (≈ 0.00278 µM)	–	–	–
C/C(=N\NC(=S)N1CCCC1)c1cnccn1	0.00019 µg/mL (≈ 0.000762 µM)	0.00049 µg/mL (≈ 0.00197 µM)	–	–	–
C/C(=N\NC(=S)N(C)C)c1ccccn1	–	–	0.00011 µg/mL (≈ 0.000495 µM)	0.00055 µg/mL (≈ 0.00247 µM)	–
CC/C(=N\N=C(/S)N1CCCCC1)c1cccnn1	0.03 µg/mL (≈ 0.108 µM)	0.071 µg/mL (≈ 0.256 µM)	–	–	–

SMILES	IC50 (MT4 [1])	IC50 (HuT78 [2])	IC50 (MT4 [3])	IC50 (HuT78 [4])	IC50 (MT4 [5])
C/C(=N\N=C(/S)N1CCCCCC1)c1cnccn1	0.0059 µg/mL (≈ 0.0213 µM)	0.0083 µg/mL (≈ 0.0299 µM)	–	–	–
C/C(=N\N=C(/S)N1CCCCC1)c1ccncn1	0.0013 µg/mL (≈ 0.00494 µM)	0.0037 µg/mL (≈ 0.014 µM)	–	–	–
CC(N/N=C(\S)N1CCCCCC1)c1cccnn1 (stereo not drawn)	0.028 µg/mL (≈ 0.1 µM)	0.04 µg/mL (≈ 0.143 µM)	–	–	–
C/C(=N\N=C(\N)S)c1cccnn1	1.13 µg/mL (≈ 5.79 µM)	0.99 µg/mL (≈ 5.07 µM)	–	–	–
C/C(=N\N=C(/S)N1CCCC1)c1ccc(C)nn1	0.036 µg/mL (≈ 0.137 µM)	0.073 µg/mL (≈ 0.277 µM)	–	–	–
CCC/C(=N\N=C(/S)N1CCCC1)c1cccnn1	0.036 µg/mL (≈ 0.13 µM)	0.068 µg/mL (≈ 0.245 µM)	–	–	–
CC(N/N=C(\S)N1CC2CCC(CC2)C1)c1cccnn1 (stereo not drawn)	0.034 µg/mL (≈ 0.111 µM)	0.038 µg/mL (≈ 0.124 µM)	–	–	–
CCC/C(=N\N=C(/S)N1CCCCC1)c1cccnn1	0.0012 µg/mL (≈ 0.00412 µM)	0.0023 µg/mL (≈ 0.00789 µM)	–	–	–
C=CCN/C(S)=N/N=C(\C)c1ccncn1	0.081 µg/mL (≈ 0.344 µM)	0.031 µg/mL (≈ 0.132 µM)	–	–	–
C/C(=N\N=C(/S)NCc1ccccn1)c1ccncn1	0.018 µg/mL (≈ 0.0629 µM)	0.24 µg/mL (≈ 0.838 µM)	–	–	–
C/C(=N\N=C(/S)NCc1ccccn1)c1cnccn1	0.041 µg/mL (≈ 0.143 µM)	1.11 µg/mL (≈ 3.88 µM)	–	–	–
C/C(=N\N=C(/S)N(C)C)c1cccnn1	0.1 µg/mL (≈ 0.448 µM)	0.079 µg/mL (≈ 0.354 µM)	–	–	–
CCC/C(=N\N=C(/S)N1CC2CCC(CC2)C1)c1cccnn1	0.084 µg/mL (≈ 0.253 µM)	0.062 µg/mL (≈ 0.187 µM)	–	–	–
C=CCN/C(S)=N/N=C(\C)c1ccc(C)nn1	1.47 µg/mL (≈ 5.9 µM)	2.81 µg/mL (≈ 11.3 µM)	–	–	–
C/C(=N\N=C(/S)N1CCCCCC1)c1ccc(C)nn1	0.028 µg/mL (≈ 0.0961 µM)	0.054 µg/mL (≈ 0.185 µM)	–	–	–
C=CCN/C(S)=N/N=C(\C)c1cnccn1	0.014 µg/mL (≈ 0.0595 µM)	0.036 µg/mL (≈ 0.153 µM)	–	–	–
C/C(=N\NC(=S)N1CCCCC1)c1cnccn1	0.00055 µg/mL (≈ 0.00209 µM)	0.00052 µg/mL (≈ 0.00197 µM)	–	–	–
S=C(NCc1ccccn1)N/N=C/c1cccnn1	3.9 µg/mL (≈ 14.3 µM)	5.62 µg/mL (≈ 20.6 µM)	–	–	–
C/C(=N\NC(N)=S)c1ccccn1	–	–	–	0.35 µg/mL (≈ 1.8 µM)	0.049 µg/mL (≈ 0.252 µM)
CCC/C(=N\N=C(/S)N1CCCCCC1)c1cccnn1	0.088 µg/mL (≈ 0.288 µM)	0.098 µg/mL (≈ 0.321 µM)	–	–	–
CC(N/N=C(\S)N1CCCCC1)c1cccnn1 (stereo not drawn)	0.033 µg/mL (≈ 0.124 µM)	0.074 µg/mL (≈ 0.279 µM)	–	–	–
C/C(=N\N=C(/S)N1CCCCC1)c1ccc(C)nn1	0.019 µg/mL (≈ 0.0685 µM)	0.055 µg/mL (≈ 0.198 µM)	–	–	–
C/C(=N\N=C(/S)N1CC2CCC(CC2)C1)c1ccncn1	0.047 µg/mL (≈ 0.155 µM)	0.036 µg/mL (≈ 0.119 µM)	–	–	–
C/C(=N\N=C(/S)N1CC2CCC(CC2)C1)c1cnccn1	0.0054 µg/mL (≈ 0.0178 µM)	0.0069 µg/mL (≈ 0.0227 µM)	–	–	–
